In brackets after ≈: the same amount, converted by molar mass. Where two headings read alike, the source gives them in different places. Starred links: 1 amine or outer side, 2 acyl side, 3 side chain; linkers in the order of their positions; H or OH if unused. Positions of bridges follow the written chain, without caps; N, C: chain ends. Non-standard residues stand in square brackets, D forms with d. Residues, ends and D or L forms follow the SMILES beside them. *: point of attachment. hTyr(3S-OH,4S-OH,3'-OSO3H) = N[C@H](C(=O)O)[C@H](O)[C@@H](O)c1ccc(O)c(OS(=O)(=O)O)c1; Orn(4R-OH,5R-OH) = O=C([C@H](C[C@@H](O)[C@@H](O)N[*:3])N[*:1])[*:2]; Pro(3S-OH,4S-Me) = C[C@H]1CN[C@H](C(=O)O)[C@H]1O; X1 = CCCCCOc1ccc(-c2cc(-c3ccc(C(=O)*)cc3)no2)cc1; Gln(3R-OH) = NC(=O)C[C@@H](O)[C@H](N)C(=O)O; Hyp = O=C(O)[C@@H]1C[C@@H](O)CN1
Columns and labels:
[1] = test system: Candida auris strains; assay: Candida auris antifungal susceptibility testing (CLSI M27-A3), 38 strains; type: cell-based; conditions: for MIC: Candidozyma auris, read-out: MIC
[2] = test system: A. fumigatus AF293; assay: Murine model of pulmonary aspergillosis (Example 19), terminal lung burden; type: in vivo, Aspergillus fumigatus; conditions: Micafungin 5 mg/kg IP Day −1
Description: A secondary endpoint for the study was terminal lung tissue burden. Immediately following confirmation of death, carcasses were frozen at −20° C. prior to tissue dissection and processing. The frozen carcasses were thawed at room temperature, the lungs removed and placed into pre-weighed bead-beating tubes containing 2 mL of PBS and subjected to mechanical disruption. Organ homogenates were diluted further in PBS and quantitatively cultured for A. fumigatus onto SABC and incubated at 30° C. for 24-48 hours.
2. Lung tissue burden data were analysed using the non-parametric Kruskal-Wallis test and if this was statistically significant all pairwise comparisons were analyzed (Conover-Inman).

[3] = test system: Candida albicans SC5314; conditions: 24 hr

Compound: CCCCCOc1ccc(-c2cc(-c3ccc(C(=O)N[C@H]4C[C@@H](O)[C@@H](O)NC(=O)[C@@H]5[C@@H](O)[C@@H](C)CN5C(=O)[C@H]([C@H](O)CC(N)=O)NC(=O)[C@H]([C@H](O)[C@@H](O)c5ccc(O)c(OS(=O)(=O)O)c5)NC(=O)[C@@H]5C[C@@H](O)CN5C(=O)[C@H]([C@@H](C)O)NC4=O)cc3)no2)cc1 [Micafungin, micafungin] (X1-[Orn(4R-OH,5R-OH)]T[Hyp][hTyr(3S-OH,4S-OH,3'-OSO3H)][Gln(3R-OH)][Pro(3S-OH,4S-Me)]; lactam 1-C)
- number of resistant isolates [1]: 4
- MIC ([1]; 24 h, strain 1 VPCI 669/P/12, 24 h): 0.125 µg/mL (≈ 0.0984 µM)
- MIC ([1]; 24 h, strain 2 VCPI 671/P/12, 24 h): 0.125 µg/mL (≈ 0.0984 µM)
- MIC ([1]; 24 h, strain 3 VCPI 674/P/12, 24 h): 0.06 µg/mL (≈ 0.0472 µM)
- MIC ([1]; 24 h, strain 4 VCPI 683/P/12, 24 h): 0.125 µg/mL (≈ 0.0984 µM)
- MIC ([1]; 24 h, strain 5 VCPI 692/P/12, 24 h): 0.125 µg/mL (≈ 0.0984 µM)
- MIC ([1]; 24 h, strain 6 VCPI 712/P/12, 24 h): 0.125 µg/mL (≈ 0.0984 µM)
- MIC ([1]; 24 h, strain 7 VCPI 471/P/13, 24 h): 0.25 µg/mL (≈ 0.197 µM)
- MIC ([1]; 24 h, strain 8 VCPI 475/P/13, 24 h): 0.125 µg/mL (≈ 0.0984 µM)
- MIC ([1]; 24 h, strain 9 VCPI 478/P/13, 24 h): 0.125 µg/mL (≈ 0.0984 µM)
- MIC ([1]; 24 h, strain 10 VCPI 479/P/13, 24 h): 0.125 µg/mL (≈ 0.0984 µM)
- MIC ([1]; 24 h, strain 11 VCPI 480/P/13, 24 h): 0.125 µg/mL (≈ 0.0984 µM)
- MIC ([1]; 24 h, strain 12 VCPI 482/P/13, 24 h): 0.125 µg/mL (≈ 0.0984 µM)
- MIC ([1]; 24 h, strain 13 VCPI 483/P/13, 24 h): 0.125 µg/mL (≈ 0.0984 µM)
- MIC ([1]; 24 h, strain 14 VCPI 1130/P/13, 24 h): 0.125 µg/mL (≈ 0.0984 µM)
- MIC ([1]; 24 h, strain 15 VCPI 1132/P/13, 24 h): 0.125 µg/mL (≈ 0.0984 µM)
- MIC ([1]; 24 h, strain 16 VCPI 1133/P/13, 24 h): 16 µg/mL (≈ 12.6 µM)
- MIC ([1]; 24 h, strain 17 VCPI 105/P/14, 24 h): 0.125 µg/mL (≈ 0.0984 µM)
- MIC ([1]; 24 h, strain 18 VCPI 107/P/14, 24 h): 0.06 µg/mL (≈ 0.0472 µM)
- MIC ([1]; 24 h, strain 19 VCPI 510/P/14, 24 h): 0.125 µg/mL (≈ 0.0984 µM)
- MIC ([1]; 24 h, strain 20 VCPI 511/P/14, 24 h): 0.125 µg/mL (≈ 0.0984 µM)
- MIC ([1]; 24 h, strain 21 VCPI 512/P/14, 24 h): 0.125 µg/mL (≈ 0.0984 µM)
- MIC ([1]; 24 h, strain 22 VCPI 513/P/14, 24 h): 0.125 µg/mL (≈ 0.0984 µM)
- MIC ([1]; 24 h, strain 23 VCPI 514/P/14, 24 h): 0.25 µg/mL (≈ 0.197 µM)
- MIC ([1]; 24 h, strain 24 VCPI 250/P/14, 24 h): 0.125 µg/mL (≈ 0.0984 µM)
- MIC ([1]; 24 h, strain 25 VCPI 265/P/14, 24 h): 16 µg/mL (≈ 12.6 µM)
- MIC ([1]; 24 h, strain 26 VCPI 266/P/14, 24 h): 0.125 µg/mL (≈ 0.0984 µM)
- MIC ([1]; 24 h, strain 27 VCPI 462/P/14, 24 h): 16 µg/mL (≈ 12.6 µM)
- MIC ([1]; 24 h, strain 28 VCPI 463/P/14, 24 h): 0.125 µg/mL (≈ 0.0984 µM)
- MIC ([1]; 24 h, strain 29 VCPI 467/P/14, 24 h): 0.25 µg/mL (≈ 0.197 µM)
- MIC ([1]; 24 h, strain 31 VCPI 478/P/14, 24 h): 0.5 µg/mL (≈ 0.394 µM)
- MIC ([1]; 24 h, strain 32 VCPI 518/P/14, 24 h): 0.25 µg/mL (≈ 0.197 µM)
- MIC ([1]; 24 h, strain 33 VCPI 550/P/14, 24 h): 0.25 µg/mL (≈ 0.197 µM)
- MIC ([1]; 24 h, strain 34 VCPI 714/P/14, 24 h): 0.125 µg/mL (≈ 0.0984 µM)
- MIC ([1]; 24 h, strain 35 VCPI 717/P/14, 24 h): 0.125 µg/mL (≈ 0.0984 µM)
- MIC ([1]; 24 h, strain 36 VCPI 1060/P/14, 24 h): 0.25 µg/mL (≈ 0.197 µM)
- MIC ([1]; 24 h, strain 37 VCPI 74/P/15, 24 h): 0.25 µg/mL (≈ 0.197 µM)
- MIC ([1]; 24 h, strain 38 VCPI 213/P/15, 24 h): 0.25 µg/mL (≈ 0.197 µM)
- MIC ([1]; 24 h): 16 µg/mL (≈ 12.6 µM)
- MIC ([1]; 48 h, strain 1 VPCI 669/P/12, 48 h): 0.25 µg/mL (≈ 0.197 µM)
- MIC ([1]; 48 h, strain 2 VCPI 671/P/12, 48 h): 0.25 µg/mL (≈ 0.197 µM)
- MIC ([1]; 48 h, strain 3 VCPI 674/P/12, 48 h): 0.125 µg/mL (≈ 0.0984 µM)
- MIC ([1]; 48 h, strain 4 VCPI 683/P/12, 48 h): 0.25 µg/mL (≈ 0.197 µM)
- MIC ([1]; 48 h, strain 5 VCPI 692/P/12, 48 h): 0.25 µg/mL (≈ 0.197 µM)
- MIC ([1]; 48 h, strain 6 VCPI 712/P/12, 48 h): 0.125 µg/mL (≈ 0.0984 µM)
- MIC ([1]; 48 h, strain 7 VCPI 471/P/13, 48 h): 0.25 µg/mL (≈ 0.197 µM)
- MIC ([1]; 48 h, strain 8 VCPI 475/P/13, 48 h): 0.25 µg/mL (≈ 0.197 µM)
- MIC ([1]; 48 h, strain 9 VCPI 478/P/13, 48 h): 0.125 µg/mL (≈ 0.0984 µM)
- MIC ([1]; 48 h, strain 10 VCPI 479/P/13, 48 h): 0.125 µg/mL (≈ 0.0984 µM)
- MIC ([1]; 48 h, strain 11 VCPI 480/P/13, 48 h): 0.125 µg/mL (≈ 0.0984 µM)
- MIC ([1]; 48 h, strain 12 VCPI 482/P/13, 48 h): 0.125 µg/mL (≈ 0.0984 µM)
- MIC ([1]; 48 h, strain 13 VCPI 483/P/13, 48 h): 0.125 µg/mL (≈ 0.0984 µM)
- MIC ([1]; 48 h, strain 14 VCPI 1130/P/13, 48 h): 0.125 µg/mL (≈ 0.0984 µM)
- MIC ([1]; 48 h, strain 15 VCPI 1132/P/13, 48 h): 0.125 µg/mL (≈ 0.0984 µM)
- MIC ([1]; 48 h, strain 16 VCPI 1133/P/13, 48 h): > 16 µg/mL
- MIC ([1]; 48 h, strain 17 VCPI 105/P/14, 48 h): 0.125 µg/mL (≈ 0.0984 µM)
- MIC ([1]; 48 h, strain 18 VCPI 107/P/14, 48 h): 0.06 µg/mL (≈ 0.0472 µM)
- MIC ([1]; 48 h, strain 19 VCPI 510/P/14, 48 h): 0.125 µg/mL (≈ 0.0984 µM)
- MIC ([1]; 48 h, strain 20 VCPI 511/P/14, 48 h): 0.125 µg/mL (≈ 0.0984 µM)
- MIC ([1]; 48 h, strain 21 VCPI 512/P/14, 48 h): 0.125 µg/mL (≈ 0.0984 µM)
- MIC ([1]; 48 h, strain 22 VCPI 513/P/14, 48 h): 0.25 µg/mL (≈ 0.197 µM)
- MIC ([1]; 48 h, strain 23 VCPI 514/P/14, 48 h): 0.25 µg/mL (≈ 0.197 µM)
- MIC ([1]; 48 h, strain 24 VCPI 250/P/14, 48 h): 0.125 µg/mL (≈ 0.0984 µM)
- MIC ([1]; 48 h, strain 25 VCPI 265/P/14, 48 h): > 16 µg/mL
- MIC ([1]; 48 h, strain 26 VCPI 266/P/14, 48 h): 0.125 µg/mL (≈ 0.0984 µM)
- MIC ([1]; 48 h, strain 27 VCPI 462/P/14, 48 h): > 16 µg/mL
- MIC ([1]; 48 h, strain 28 VCPI 463/P/14, 48 h): 0.125 µg/mL (≈ 0.0984 µM)
- MIC ([1]; 48 h, strain 29 VCPI 467/P/14, 48 h): 0.25 µg/mL (≈ 0.197 µM)
- MIC ([1]; 48 h, strain 31 VCPI 478/P/14, 48 h): 0.5 µg/mL (≈ 0.394 µM)
- MIC ([1]; 48 h, strain 32 VCPI 518/P/14, 48 h): 0.5 µg/mL (≈ 0.394 µM)
- MIC ([1]; 48 h, strain 33 VCPI 550/P/14, 48 h): 0.5 µg/mL (≈ 0.394 µM)
- MIC ([1]; 48 h, strain 34 VCPI 714/P/14, 48 h): 0.25 µg/mL (≈ 0.197 µM)
- MIC ([1]; 48 h, strain 35 VCPI 717/P/14, 48 h): 0.125 µg/mL (≈ 0.0984 µM)
- MIC ([1]; 48 h, strain 36 VCPI 1060/P/14, 48 h): 0.25 µg/mL (≈ 0.197 µM)
- MIC ([1]; 48 h, strain 37 VCPI 74/P/15, 48 h): 0.25 µg/mL (≈ 0.197 µM)
- MIC ([1]; 48 h, strain 38 VCPI 213/P/15, 48 h): 0.25 µg/mL (≈ 0.197 µM)
- MIC ([1]; 48 h): > 16 µg/mL
- Group Geometric mean (lung burden) [2]: 6.61 × 10^3 CFU/g
- Log10 Group Geometric mean (lung burden) [2]: 3.82 CFU/g
- Log10 reduction from vehicle control [2]: 0.35 CFU/g
- CFU clearance ([3]; micafungin IP 10 mg/kg): complete clearance was only observed with the 10 mg/kg dose
- CFU reduction ([3]; micafungin IP 1, 3, 10 mg/kg): good dose response in CFU reduction

— patent publication US20190307843A1, “SINGLE DOSE METHODS FOR PREVENTING AND TREATING FUNGAL INFECTIONS” (Cidara Therapeutics, Inc., priority 2016, published 2019)
